Measured values published in ChEMBL document CHEMBL1201862, “PubChem BioAssay data set” (2004).
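Exposure lasted 48 hours, with cells grown in 96-well plates and compounds tested at five concentrations. GI50 = concentration required for 50% inhibition of growth.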 Calls of active or inactive are those of the source. Rule as the data show it: active = GI50 up to about 1.1 µM and inactive = higher.

Legend:
Assay in all cases: NCI anticancer screen, dose series, 48 h
MDA-MB-435 = test system: MDA-MB-435
MOLT-4 = test system: MOLT-4
786-0 = test system: 786-0
K562 = test system: K562
T47D = test system: T47D
Hs-578T = test system: Hs-578T
RXF 393 = test system: RXF 393
A549 = test system: A549
NCI-H522 = test system: NCI-H522
COLO 205 = test system: COLO 205
HOP-62 = test system: HOP-62
NCI/ADR-RES = test system: NCI/ADR-RES
UACC-62 = test system: UACC-62
DU-145 = test system: DU-145
HCC 2998 = test system: HCC 2998
BT-549 = test system: BT-549
ACHN = test system: ACHN
M14 = test system: M14
Malme-3M = test system: Malme-3M
PC-3 = test system: PC-3
U-251 = test system: U-251
SK-OV-3 = test system: SK-OV-3
MDA-N = test system: MDA-N
HT-29 = test system: HT-29
SK-MEL-2 = test system: SK-MEL-2
RPMI-8226 = test system: RPMI-8226
HL-60 = test system: HL-60
MDA-MB-231 = test system: MDA-MB-231
SF-295 = test system: SF-295
OVCAR-3 = test system: OVCAR-3
SK-MEL-5 = test system: SK-MEL-5
TK-10 = test system: TK-10
NCI-H460 = test system: NCI-H460
MCF7 = test system: MCF7
UACC-257 = test system: UACC-257
CCRF-CEM = test system: CCRF-CEM
SN12C = test system: SN12C
SNB-75 = test system: SNB-75
SF-268 = test system: SF-268
NCI-H226 = test system: NCI-H226
IGROV-1 = test system: IGROV-1
LOX IMVI = test system: LOX IMVI
SF-539 = test system: SF-539
HCT-15 = test system: HCT-15
A498 = test system: A498
SNB-19 = test system: SNB-19
HCT-116 = test system: HCT-116
KM12 = test system: KM12
OVCAR-8 = test system: OVCAR-8
SW-620 = test system: SW-620
NCI-H23 = test system: NCI-H23
CAKI-1 = test system: CAKI-1
OVCAR-5 = test system: OVCAR-5
SK-MEL-28 = test system: SK-MEL-28
UO-31 = test system: UO-31
OVCAR-4 = test system: OVCAR-4
EKVX = test system: EKVX

c1ccc2c(CN3CCC(C4CCN(Cc5cccc6ccccc56)CC4)CC3)cccc2c1
GI50 (MDA-MB-435): 3.52 µM (inactive) | GI50 (MOLT-4): 5.27 µM (inactive) | GI50 (786-0): 16.3 µM (inactive) | GI50 (K562): 1.6 µM (inactive) | GI50 (T47D): 23.1 µM (inactive) | GI50 (Hs-578T): 32.1 µM (inactive) | GI50 (RXF 393): 21.8 µM (inactive) | GI50 (A549): 62.7 µM (inactive) | GI50 (NCI-H522): 8.53 µM (inactive) | GI50 (COLO 205): 1.77 µM (inactive) | GI50 (HOP-62): 25.4 µM (inactive) | GI50 (NCI/ADR-RES): 38.3 µM (inactive) | GI50 (UACC-62): 7.43 µM (inactive) | GI50 (DU-145): 86.1 µM (inactive) | GI50 (HCC 2998): 1.77 µM (inactive) | GI50 (BT-549): > 56 µM (inactive) | GI50 (ACHN): 33.3 µM (inactive) | GI50 (M14): 1.98 µM (inactive) | GI50 (Malme-3M): 3.47 µM (inactive) | GI50 (PC-3): 32.8 µM (inactive) | GI50 (U-251): 16.5 µM (inactive) | GI50 (SK-OV-3): 28 µM (inactive) | GI50 (MDA-N): 8.13 µM (inactive) | GI50 (HT-29): 3.28 µM (inactive) | GI50 (SK-MEL-2): 8.41 µM (inactive) | GI50 (RPMI-8226): 2.57 µM (inactive) | GI50 (HL-60): 3.01 µM (inactive) | GI50 (MDA-MB-231): 21.4 µM (inactive) | GI50 (SF-295): 6.28 µM (inactive) | GI50 (OVCAR-3): > 58.6 µM (inactive) | GI50 (SK-MEL-5): 4.89 µM (inactive) | GI50 (TK-10): 20.1 µM (inactive) | GI50 (NCI-H460): 16.3 µM (inactive) | GI50 (MCF7): 26.5 µM (inactive) | GI50 (UACC-257): 3.48 µM (inactive)

O=C1CCCCCCCCCCC1CN1CCCC1 (stereo unspecified)
GI50 (CCRF-CEM): 27.4 µM (inactive) | GI50 (SN12C): 41.1 µM (inactive) | GI50 (SNB-75): 32.9 µM (inactive) | GI50 (MDA-MB-435): 36.1 µM (inactive) | GI50 (SF-268): 50 µM (inactive) | GI50 (NCI-H226): 15.4 µM (inactive) | GI50 (MOLT-4): 39.4 µM (inactive) | GI50 (786-0): 20.4 µM (inactive) | GI50 (K562): 53.8 µM (inactive) | GI50 (IGROV-1): 46 µM (inactive) | GI50 (T47D): 46.1 µM (inactive) | GI50 (Hs-578T): 17.9 µM (inactive) | GI50 (RXF 393): 15.1 µM (inactive) | GI50 (A549): 43.6 µM (inactive) | GI50 (NCI-H522): 39.3 µM (inactive) | GI50 (LOX IMVI): 19.4 µM (inactive) | GI50 (SF-539): 22.1 µM (inactive) | GI50 (COLO 205): 20.1 µM (inactive) | GI50 (HOP-62): 17.1 µM (inactive) | GI50 (NCI/ADR-RES): 40 µM (inactive) | GI50 (UACC-62): 17.1 µM (inactive) | GI50 (DU-145): 29.9 µM (inactive) | GI50 (HCT-15): 32.8 µM | GI50 (HCC 2998): 20 µM (inactive) | GI50 (A498): 19.4 µM (inactive) | GI50 (BT-549): 31.4 µM (inactive) | GI50 (ACHN): 54.8 µM (inactive) | GI50 (SNB-19): > 100 µM (inactive) | GI50 (M14): 20.1 µM (inactive) | GI50 (Malme-3M): 31.6 µM (inactive) | GI50 (PC-3): 30.8 µM (inactive) | GI50 (U-251): 26.7 µM (inactive) | GI50 (SK-OV-3): 50.9 µM (inactive) | GI50 (MDA-N): 33 µM (inactive) | GI50 (HCT-116): 33.4 µM (inactive) | GI50 (HT-29): 17.9 µM (inactive) | GI50 (SK-MEL-2): 17.9 µM (inactive) | GI50 (RPMI-8226): > 100 µM (inactive) | GI50 (KM12): 25.6 µM (inactive) | GI50 (OVCAR-8): 45.4 µM (inactive) | GI50 (SW-620): 39.3 µM (inactive) | GI50 (HL-60): 32 µM (inactive) | GI50 (MDA-MB-231): 47.9 µM (inactive) | GI50 (SF-295): 29.9 µM (inactive) | GI50 (NCI-H23): 36.1 µM (inactive) | GI50 (CAKI-1): 43.1 µM (inactive) | GI50 (OVCAR-3): 67.5 µM (inactive) | GI50 (SK-MEL-5): 17.6 µM (inactive) | GI50 (OVCAR-5): 22.3 µM (inactive) | GI50 (SK-MEL-28): 22.1 µM (inactive) | GI50 (UO-31): 35.1 µM (inactive) | GI50 (TK-10): 32.3 µM (inactive) | GI50 (NCI-H460): 26.9 µM (inactive) | GI50 (MCF7): 20.5 µM (inactive) | GI50 (UACC-257): 20 µM (inactive)

Cc1ccc(S(=O)(=O)N/N=C/c2c(O)ccc3ccccc23)cc1
GI50 (CCRF-CEM): 36.7 µM (inactive) | GI50 (SN12C): 31.1 µM (inactive) | GI50 (SNB-75): 20.7 µM (inactive) | GI50 (MDA-MB-435): 23.7 µM (inactive) | GI50 (SF-268): 31.8 µM (inactive) | GI50 (MOLT-4): 20.5 µM (inactive) | GI50 (786-0): 30.1 µM (inactive) | GI50 (OVCAR-4): 28.8 µM (inactive) | GI50 (K562): 18.3 µM (inactive) | GI50 (IGROV-1): 6.68 µM (inactive) | GI50 (T47D): 31.8 µM (inactive) | GI50 (Hs-578T): 17.5 µM (inactive) | GI50 (RXF 393): 19.4 µM (inactive) | GI50 (A549): 34 µM (inactive) | GI50 (NCI-H522): 17 µM (inactive) | GI50 (LOX IMVI): 32.1 µM (inactive) | GI50 (SF-539): 16.1 µM (inactive) | GI50 (COLO 205): 19.5 µM (inactive) | GI50 (HOP-62): 37.7 µM (inactive) | GI50 (NCI/ADR-RES): 27.7 µM (inactive) | GI50 (UACC-62): 18.2 µM (inactive) | GI50 (DU-145): 29 µM (inactive) | GI50 (HCT-15): 24.5 µM | GI50 (HCC 2998): 21.4 µM (inactive) | GI50 (A498): 16.7 µM (inactive) | GI50 (BT-549): 23.8 µM (inactive) | GI50 (ACHN): 23.9 µM (inactive) | GI50 (EKVX): 32.1 µM (inactive) | GI50 (SNB-19): 41.1 µM (inactive) | GI50 (M14): 22.1 µM (inactive) | GI50 (Malme-3M): 24.3 µM (inactive) | GI50 (PC-3): 20.7 µM (inactive) | GI50 (U-251): 27.6 µM (inactive) | GI50 (SK-OV-3): 7.87 µM (inactive) | GI50 (MDA-N): 27.6 µM (inactive) | GI50 (HCT-116): 15.3 µM (inactive) | GI50 (HT-29): 32.9 µM (inactive) | GI50 (SK-MEL-2): 20.8 µM (inactive) | GI50 (RPMI-8226): 26.7 µM (inactive) | GI50 (KM12): 18.9 µM (inactive) | GI50 (OVCAR-8): 30.4 µM (inactive) | GI50 (SW-620): 30.3 µM (inactive) | GI50 (HL-60): 43.4 µM (inactive) | GI50 (MDA-MB-231): 21.9 µM (inactive) | GI50 (SF-295): 16.2 µM (inactive) | GI50 (NCI-H23): 30.5 µM (inactive) | GI50 (CAKI-1): 17.9 µM (inactive) | GI50 (OVCAR-3): 19.9 µM (inactive) | GI50 (SK-MEL-5): 31.8 µM (inactive) | GI50 (OVCAR-5): 29.6 µM (inactive) | GI50 (SK-MEL-28): 35.5 µM (inactive) | GI50 (UO-31): 53.7 µM (inactive) | GI50 (TK-10): 45.8 µM (inactive) | GI50 (NCI-H460): 26.3 µM (inactive) | GI50 (MCF7): 25.5 µM (inactive) | GI50 (UACC-257): 37.3 µM (inactive)
